US5486516A, “Furopyrimidine derivatives” (DowElanco, priority 1993, dated 1996)

Assays:
[1] = system: Twospotted spider mites (Tetranychus urticae Koch); assay: Mite/insect screen, twospotted spider mites; format: in vivo; conditions: Tetranychus urticae, sprayed leaves, read-out: SM results (percent mortality); for mortality at 200 ppm: rate 200 ppm; for mortality at 400 ppm: rate 400 ppm
Procedure: (§1) The compounds of Examples were tested for miticidal and insecticidal activity in the following mite/insect screen.
(§2) Each test compound was formulated by dissolving the compound in acetone/alcohol (50:50) mixture containing 23 g of "TOXIMUL R" (sulfonate/nonionic emulsifier blend) and 13 g of "TOXIMUL S" (sulfonate/nonionic emulsifier blend) per liter. These mixtures were then diluted with water to give the indicated concentrations.
(§3) Twospotted spider mites (Tetranychus urticae Koch) and melon aphids (Aphis gossvpii Glover) were introduced on squash cotyledons and allowed to establish on both leaf surfaces. Other plants in the same treatment pot were left uninfested. The leaves were then sprayed with 5 ml of test solution using a DeVilbiss atomizing sprayer at 10 psi. Both surfaces of the leaves were covered until runoff, and then allowed to dry for one hour. Two uninfested leaves were then excised and placed into a Petri dish containing larval southern armyworm (Spodopetra eridania Cramer).
(§4) After standard exposure periods, percent mortality and phytotoxicity were evaluated. […] The following abbreviations are used in Table 3:
SM refers to twospotted spider mites

[2] = system: Pseudoperonospora cubensis (downy mildew); assay: Plant pathology screen (Test 1), downy mildew on squash; conditions: foliar, read-out: DOWN MDEW control rating
[3] = system: Erysiphe graminis tritici (powdery mildew); assay: Plant pathology screen (Test 1), powdery mildew on wheat; conditions: Blumeria graminis, in Triticum aestivum, foliar, read-out: POWD MDEW control rating
[4] = system: Southern corn rootworm (Diabrotica undecimpuctata howardi Barber); assay: Mite/insect screen, corn rootworm; format: in vivo; conditions: Diabrotica, soil, read-out: CRW results (percent mortality); for mortality at 12 ppm: CRW rate 12.00 ppm; for mortality at 24 ppm: CRW rate 24.00 ppm
Procedure: as §1, §2
Activity on Southern corn rootworm (Diabrotica undecimpuctata howardi Barber) was evaluated by adding two ml of tap water, a presoaked corn seed, and 15 g of dry sandy soil to a one ounce plastic container. The soil was treated with 1 mL of test solution containing a predetermined concentration of test compound. After six to 12 hours of drying, five 2-3 instar corn rootworm larvae were added to the individual cups, which were then capped and held at 23° C.
as §4
CRW refers to corn rootworm

[5] = system: southern armyworm (Spodopetra eridania Cramer); assay: Mite/insect screen, Southern armyworm; format: in vivo; conditions: Spodoptera eridania, sprayed leaves, read-out: SAW results (percent mortality); for mortality at 200 ppm: rate 200 ppm; for mortality at 400 ppm: rate 400 ppm
Procedure: as §1, §2, §3, §4
SAW refers to Southern armyworm

[6] = system: Pyricularia oryzae (rice blast); assay: whole plant or invertebrate; format: in vivo; conditions: foliar, read-out: RICE BLAST control rating
[7] = system: Puccinia recondita tritici (leaf rust); assay: Plant pathology screen (Test 1), leaf rust on wheat; conditions: in Triticum aestivum, foliar, read-out: LEAF RUST control rating
Procedure: (§5) This screen was used to evaluate the efficacy of the present compounds against a variety of different organisms that cause plant diseases.
(§6) The test compounds were formulated for application by dissolving 50 mg of the compound into 1.25 ml of solvent. The solvent was prepared by mixing 50 ml of "Tween 20" (polyoxyethylene (20) sorbitan monolaurate emulsifier) with 475 ml of acetone and 475 ml of ethanol. The solvent/compound solution was diluted to 125 ml with deionized water. The resulting formulation contains 400 ppm test chemical. Lower concentrations were obtained by serial dilution with the solvent-surfactant mixture.
The formulated test compounds were applied by foliar spray.
(§7) The formulated technical compounds were sprayed on all foliar surfaces of the host plants (or cut berry) to past run-off. Single pots of each host plant were placed on raised, revolving pedestals in a fume hood. Test solutions were sprayed on all foliar surfaces. All treatments were allowed to dry and the plants were inoculated with the appropriate pathogens within 2-4 hours.
(§8) The effectiveness of test compounds in controlling disease was rated using the following scale.

[8] = system: melon aphids (Aphis gossvpii Glover); assay: Mite/insect screen, melon aphids; format: in vivo; conditions: Aphis, sprayed leaves, read-out: MA results (percent mortality); for mortality at 200 ppm: rate 200 ppm; for mortality at 400 ppm: rate 400 ppm
Procedure: as §1, §2, §3, §4
MA refers to melon aphids.

[9] = system: Botrytis cinerea (gray mold); assay: Plant pathology screen (Test 1), gray mold on grape berries; conditions: read-out: GRAY MOLD control rating
Procedure: as §5, §6
The formulated test compounds were applied by foliar spray. The following plant pathogens and their corresponding plants were employed.
as §7, §8

SMILES	mortality at 200 ppm [1] [%]	mortality at 400 ppm [1] [%]	pest or weed control at 400 µg/mL [2] [%]	pest or weed control at 400 µg/mL [3] [%]	mortality at 12 ppm [4] [%]	mortality at 24 ppm [4] [%]	mortality at 200 ppm [5] [%]	mortality at 400 ppm [5] [%]	pest or weed control at 400 µg/mL [6] [%]	pest or weed control at 400 µg/mL [7] [%]	mortality at 200 ppm [8] [%]	mortality at 400 ppm [8] [%]	pest or weed control at 400 µg/mL [9] [%]
Cc1oc2ncnc(OCCN3C[C@@H](C)O[C@H](C)C3)c2c1C (relative stereo) [Example 58, Trans-5,6-dimethyl-4-[2-(2,6-dimethyl-4-morpholinyl)ethoxy]furo[2,3-d]pyrimidine]	0	0	20 to 89	0 to 19	0	0	0	0	0 to 19	20 to 89	0	0	0 to 19
COc1ccc(CCNc2ncnc3oc(C)c(C)c23)cc1 [Example 1, N-[2-(4-methoxyphenyl)ethyl]-5,6-dimethylfuro[2,3-d]pyrimidin-4-amine]	0	0	20 to 89	0 to 19	0	100	0	0	90 to 100	20 to 89	80	0	0 to 19
COc1ccc(CCNc2ncnc3occ(C)c23)cc1 [Example 2, 5-methyl-N-[2-(4-methoxyphenyl)ethyl]furo[2,3-d]pyrimidin-4-amine]	0	0	90 to 100	20 to 89	0	0	0	0	90 to 100	90 to 100	0	80	0 to 19
CCOc1ccc(CCNc2ncnc3oc(C)c(C)c23)cc1 [Example 3, 5,6-dimethyl-N-[2-(4-ethoxyphenyl)ethyl]furo[2,3-d]pyrimidin-4-amine]	0	0	20 to 89	0 to 19	0	0	30	0	20 to 89	20 to 89	0	0	0 to 19
COc1ccc(CCNc2ncnc3oc(C)cc23)cc1 [Example 4, N-(2-(4-methoxyphenyl)ethyl]-6-methylfuro(2,3-d]pyrimidin-4-amine]	–	0	0 to 19	0 to 19	–	0	–	0	20 to 89	90 to 100	–	0	0 to 19
Cc1cc2c(Oc3ccc(F)cc3)ncnc2o1 [Example 5, 6-methyl-4-(4-fluorophenoxy)furo[2,3-d]pyrimidine]	0	0	0 to 19	20 to 89	0	0	0	0	0 to 19	90 to 100	0	0	0 to 19
Cc1cc2c(NCCc3ccc(Cl)cc3)ncnc2o1 [Example 6, 6-methyl-N-[2-(4-chlorophenyl)ethyl]furo(2,3-d]pyrimidin-4-amine]	0	0	0 to 19	0 to 19	0	0	0	0	0 to 19	0 to 19	0	0	0 to 19
Cc1cc2c(OCCc3ccc(-c4ccccc4)cc3)ncnc2o1 [Example 7, 4-[2-(1,1'-biphenyl)-4-ylethoxy]6-methylfuro[2,3-d]pyrimidine]	30	0	20 to 89	0 to 19	0	0	0	0	20 to 89	0 to 19	100	0	0 to 19
Cc1cc2c(NCCc3cccc(C(F)(F)F)c3)ncnc2o1 [Example 8, 6-methyl-N-[2-[3-(trifluoromethyl)phenyl]ethyl]furo[2,3-d]pyrimidin-4-amine]	0	0	90 to 100	20 to 89	0	0	0	0	20 to 89	90 to 100	0	0	0 to 19
CCOc1ccc(CCNc2ncnc3oc(C)cc23)cc1 [Example 9, 6-methyl-N-[2-(4-ethoxyphenyl)ethyl]furo(2,3-d]pyrimidin-4-amine]	0	0	20 to 89	0 to 19	0	0	0	0	0 to 19	90 to 100	0	0	0 to 19
Cc1oc2ncnc(NCCc3ccc(Cl)cc3)c2c1C [Example 10, N-(2-(4-chlorophenyl)ethyl]-5,6-dimethylfuro[2,3-d]pyrimidin-4-amine]	0	0	20 to 89	0 to 19	0	0	0	0	90 to 100	20 to 89	0	0	0 to 19
Cc1coc2ncnc(NCCc3ccc(Cl)cc3)c12 [Example 11, 5-methyl-N-[2-(4-chlorophenyl)ethyl]furo[2,3-d]pyrimidin-4-amine]	30	0	90 to 100	20 to 89	0	0	0	60	90 to 100	90 to 100	90	0	0 to 19
COc1ccc(CCn2cnc3oc(C)c(C)c3c2=N)cc1 [Example 80, 3-[2-(4-methoxyphenyl)ethyl]-5,6-dimethylfuro[2,3-d]pyrimidin-4(3H)-imine]	0	0	–	0 to 19	0	0	0	0	0 to 19	0 to 19	0	0	0 to 19
